Experimental data as given in patent US20130317067A1, “PESTICIDAL MIXTURES WITH IMPROVED PROPERTIES” (BAYER INTELLECTUAL PROPERTY GMBH, priority 2010, published 2013).

Key:
Format in all cases: in vivo
[1] = tested on: cotton aphid (Aphis gossypii); experiment: Aphis gossypii test (cotton seed treatment)
Protocol: (§1) The expected efficacy of a given combination of two compounds is calculated as follows (see Colby, S. R., “Calculating Synergistic and antagonistic Responses of Herbicide Combinations”, Weeds 15, pp. 20-22, 1967):
(§2) If • X is the efficacy expressed in % mortality of the untreated control for test compound A at a concentration of m ppm respectively m g/ha, • Y is the efficacy expressed in % mortality of the untreated control for test compound B at a concentration of n ppm respectively n g/ha, • E is the efficacy expressed in % mortality of the untreated control using the mixture of A and B at m and n ppm respectively m and n g/ha, then is
(§3) If the observed insecticidal efficacy of the combination is higher than the one calculated as “E”, then the combination of the two compounds is more than additive, i.e., there is a synergistic effect.
(§4) If not mentioned otherwise, the crystalline modification I of 4-{[(6-chloropyrid-3-yl)methyl](methyl)amino}furan-2(5H)-one has been prepared as a water-dispersible or water-soluble powder in an active ingredient concentration of 70% (wt/wt) involving the following formulation auxiliaries, whereas the amount of auxiliaries sums up to 100 wt. %:
(§5) The auxiliaries were mixed with the appropriate amount of the crystalline modification I of 4-{[(6-chloropyrid-3-yl)methyl](methyl)amino}furan-2(5H)-one. There is no water or solvent added. To enable the dry mixture to stick on the seed, the seed were treated with a minimal amount of water, namely […] for 2 g canola seeds, and 800 μl für 20 g cotton seeds
(§6) Cotton seeds were treated with the compounds or mixtures and sown. 10 days after germination the plants were infested with a mixed population of the cotton aphid (Aphis gossypii). After the specified period of time, the mortality in % is determined. 100% means that all the aphids have been killed; 0% means that none of the aphids have been killed.

[2] = tested on: green peach aphid (Myzus persicae); experiment: Myzus persicae test (oil seed rape seed treatment)
Protocol: as §1, §2, §3, §4, §5
as §6, with “Seeds of Oil seed rape were” for “Cotton seeds were”, “sown. Ca. 35” for “sown. 10”, “the green peach” for “the cotton”, “aphid (Myzus persicae).” for “aphid (Aphis gossypii).”

[3] = tested on: larvae of the mustard beetle (Phaedon cochleariae); experiment: Phaedon cochleariae larvae test (oil seed rape seed treatment)
Protocol: as §1, §2, §3, §4, §5
Seeds of Oil seed rape were treated with the compounds or mixtures and sown. Ca. 35 days after germination the plants were infested with a larvae of the mustard beetle (Phaedon cochleariae). After the specified period of time, the mortality in % is determined. 100% means that all the beetle larvae have been killed; 0% means that none of the beetle larvae have been killed.

## CN(Cc1ccc(Cl)nc1)C1=CC(=O)OC1 [4-{[(6-chloropyrid-3-yl)methyl](methyl)amino}furan-2(5H)-one]
[1]; 0.01 mg ai/grain
  Kill rate [in % after 2 days]: 63%
[1]; 0.025 mg ai/grain
  Kill rate [in % after 1 day]: 0%
  Kill rate [in % after 2 days]: 80%
[2]; 0.01 mg ai/grain
  Kill rate [in % after 2 days]: 10%
  Kill rate [in % after 7 days]: 0%
[2]; 0.025 mg ai/grain
  Kill rate [in % after 3 days]: 0%
[3]; 0.01 mg ai/grain
  Kill rate [in % after 4 days]: 0%
[3]; 0.025 mg ai/grain
  Kill rate [in % after 5 days]: 5.56%

## Cn1cc(C(=O)Nc2ccc(F)cc2-c2ccc(Cl)c(Cl)c2)c(C(F)F)n1 [Bixafen]
[1]; 0.5 mg ai/grain
  Kill rate [in % after 2 days]: 0%

## CCC1(C(=O)N[C@H](C)c2ccc(Cl)cc2)C(C)C1(Cl)Cl (some centres unmarked) [Carpropamid]
[1]; 0.5 mg ai/grain
  Kill rate [in % after 1 day]: 0%

## CSC1=N[C@@](C)(c2ccccc2)C(=O)N1Nc1ccccc1 [Fenamidone]
[2]; 0.5 mg ai/grain
  Kill rate [in % after 3 days]: 0%
  Kill rate [in % after 7 days]: 0%

## CC1(C(=O)Nc2ccc(O)c(Cl)c2Cl)CCCCC1 [Fenhexamid]
[1]; 0.5 mg ai/grain
  Kill rate [in % after 2 days]: 0%

## N#Cc1c[nH]cc1-c1cccc2c1OC(F)(F)O2 [Fluodioxonil, Fludioxonil]
[3]; 05 mg ai/grain (so in the source)
  Kill rate [in % after 4 days]: 0%

## O=C(NCc1ncc(C(F)(F)F)cc1Cl)c1c(Cl)cccc1Cl [Fluopicolide]
[3]; 1 mg ai/grain
  Kill rate [in % after 5 days]: 0%

## CCO[PH](=O)O [Fosetyl-Al]
[2]; 1 mg ai/grain
  Kill rate [in % after 2 days]: 0%

## CON=C(C(=O)OC)c1ccccc1CON=C(C)c1cccc(C(F)(F)F)c1 [Trifloxystrobin]
[1]; 0.5 mg ai/grain
  Kill rate [in % after 1 day]: 0%
